As usually defined, the IC50 is the concentration that inhibits the measured activity by half. Low values mean inhibition by little substance, high ones a need for much substance.

This note sets out measurements from patent publication US10364256B2 (GlaxoSmithKline Intellectual Property Development Limited, priority 2015, dated 2019).

For assay [1], the target named is T1, Keap1 Kelch domain (321-609) / TAMRA-labeled 16mer NRF2 peptide (ETGE motif) (Homo sapiens, UniProt Q14145).
T1 construct: the Kelch domain (321-609) of Keap1 is used
The assay can be described thus: NRF2-Keap1 FP Assay (Keap1 Kelch fluorescence polarization). In kind it is binding. Particulars: 20 nM Keap1 (321-609), 8 nM Tamra labeled peptide. Summed up: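 Compound dilutions (3-fold) were incubated 1 hr at room temperature with 20 nM Keap1 Kelch (321-609) and 8 nM TAMRA-labeled ETGE 16mer peptide. Buffer was 50 mM Tris pH 8.0, 100 mM NaCl, 5 mM MgCl2, 1 mM DTT, 2 mM CHAPS, 0.005% BSA. Fluorescence polarization (mP) was normalized to controls and fitted with a four-parameter equation to give pIC50.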
On the technique in general: Fluorescence polarisation rises when a labelled molecule tumbles more slowly, as on binding a larger partner.

The target of assay [2] is T2, full length Keap1 protein / full length NRF2 protein (Homo sapiens, UniProt Q14145).
T2 construct: full length NRF2 protein and full length Keap1 protein (Keap1 exists a dimer) are used; His
The assay is described as follows: NRF2-Keap1 TR-FRET Assay. Type of assay: binding. Particulars: 25 nM Keap1-FlagHis and 50 nM biotin-NRF2 added. An outline of the steps:
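Full-length Keap1-FlagHis preincubated with compound 2.25 h at 37 °C, then biotin-NRF2 added for 1.25 h at 4 °C, in Tris pH 8.0 with MgCl2, NaCl, BSA, DTT, CHAPS. TR-FRET 665/615 nm ratio normalised to with- and without-protein 1% DMSO controls; pIC50 from four-parameter fit.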
In general terms: Time-resolved FRET reads energy transfer from a long-lived donor to a nearby acceptor.

T2 sequence (Q14145 whole entry): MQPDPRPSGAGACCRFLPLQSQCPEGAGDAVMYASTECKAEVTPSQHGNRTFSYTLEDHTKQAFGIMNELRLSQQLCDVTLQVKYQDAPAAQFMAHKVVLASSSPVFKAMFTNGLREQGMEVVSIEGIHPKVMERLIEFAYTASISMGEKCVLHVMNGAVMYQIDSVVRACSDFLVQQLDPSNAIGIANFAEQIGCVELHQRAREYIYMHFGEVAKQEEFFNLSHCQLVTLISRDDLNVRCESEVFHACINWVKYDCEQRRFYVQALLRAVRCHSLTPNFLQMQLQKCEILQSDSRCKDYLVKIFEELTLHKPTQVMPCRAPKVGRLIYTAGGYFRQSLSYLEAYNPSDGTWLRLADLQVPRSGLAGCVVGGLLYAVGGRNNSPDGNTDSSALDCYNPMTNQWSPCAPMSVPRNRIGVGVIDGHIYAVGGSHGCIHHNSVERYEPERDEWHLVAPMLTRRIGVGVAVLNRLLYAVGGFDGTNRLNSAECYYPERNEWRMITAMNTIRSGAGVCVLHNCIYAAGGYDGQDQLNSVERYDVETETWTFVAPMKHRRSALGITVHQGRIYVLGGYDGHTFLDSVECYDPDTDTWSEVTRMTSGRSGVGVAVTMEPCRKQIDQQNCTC
T1 sequence (Q14145 321-609): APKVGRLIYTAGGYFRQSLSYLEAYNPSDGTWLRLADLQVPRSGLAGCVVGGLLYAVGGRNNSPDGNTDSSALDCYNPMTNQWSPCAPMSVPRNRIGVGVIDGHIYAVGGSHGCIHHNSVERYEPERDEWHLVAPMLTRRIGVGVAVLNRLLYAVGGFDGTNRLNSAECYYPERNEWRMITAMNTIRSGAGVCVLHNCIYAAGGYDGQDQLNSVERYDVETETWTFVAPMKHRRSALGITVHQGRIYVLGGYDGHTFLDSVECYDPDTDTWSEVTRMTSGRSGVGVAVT

For the compound `CC(Oc1cccc(-c2cccc(-n3ncc(C(=O)O)c3C3CC3c3cn(C)nn3)c2)c1)C1CC1` (stereo not drawn) [Example 231, 1-(3′-(1-Cyclopropylethoxy)-[1,1′-biphenyl]-3-yl)-5-(2-(1-methyl-1H-1,2,3-triazol-4-yl)cyclopropyl)-1H-pyrazole-4-carboxylic acid], the 50% inhibitory concentration (IC50) in assay [1] fell in the range of 10 to 100 nM; in assay [2], 100 to 1000 nM.
For `CCC[C@@H]1CCCCN1C(=O)c1cccc(-c2cccc(-n3ncc(C(=O)O)c3C3CC3c3cn(C)nn3)n2)c1` (stereo partly drawn) [Example 196, 5-(2-(1-Methyl-1H-1,2,3-triazol-4-yl)cyclopropyl)-1-(6-(3-((R)-2-propylpiperidine-1-carbonyl)phenyl)pyridin-2-yl)-1H-pyrazole-4-carboxylic Acid] the same measures were 10 to 100 nM and 10 to 100 nM.
As to `CC(Oc1cccc(-c2cccc(-n3ncc(C(=O)O)c3[C@H]3C[C@@H]3c3cn(C)nn3)c2)c1)C1CCCCC1` (single isomer, unassigned) [Example 191], the IC50 in assay [1] and in assay [2] was 100 to 1000 nM in each case.
On to `CCC[C@@H]1CCCCN1C(=O)c1cccc(-c2cccc(-n3ncc(C(=O)O)c3C3CC3c3cnn(C)c3)c2)c1` (stereo partly drawn) [Example 213, 5-(2-(1-Methyl-1H-pyrazol-4-yl)cyclopropyl)-1-(3′-((R)-2-propylpiperidine-1-carbonyl)-[1,1′-biphenyl]-3-yl)-1H-pyrazole-4-carboxylic Acid], for which the IC50 in assay [1] and in assay [2] was 10 to 100 nM throughout.
For `Cn1cc([C@@H]2C[C@H]2c2c(C(=O)O)cnn2-c2cccc(-c3cccc(OCC4CCCSC4)c3)c2)nn1` (mixture of isomers) [Example 144, 5-((1,2-trans)-2-(1-Methyl-1H-1,2,3-triazol-4-yl)cyclopropyl)-1-(3′-((tetrahydro-2H-thiopyran-3-yl)methoxy)-[1,1′-biphenyl]-3-yl)-1H-pyrazole-4-carboxylic Acid], the values for the half-maximal inhibitory concentration (IC50) in assay [1] and in assay [2] were 10 to 100 nM and 100 to 1000 nM, respectively.
For `CC(Oc1cccc(-c2cccc(-n3ncc(C(=O)O)c3C3CC3c3cn(C)nn3)c2)c1)C1CCOCC1` (stereo not drawn) [Example 227, 5-(2-(1-Methyl-1H-1,2,3-triazol-4-yl)cyclopropyl)-1-(3′-(1-(tetrahydro-2H-pyran-4-yl)ethoxy)-[1,1′-biphenyl]-3-yl)-1H-pyrazole-4-carboxylic Acid] the same measures were 10 to 100 nM and 10 to 100 nM.
As for `COC(c1cccc(-c2cccc(-n3ncc(C(=O)O)c3C3CC3c3cn(C)nn3)c2)c1)C1CCCC1` (stereo not drawn) [Example 183, 1-(3′-(Cyclopentyl(methoxy)methyl)-[1,1′-biphenyl]-3-yl)-5-(2-(1-methyl-1H-1,2,3-triazol-4-yl)cyclopropyl)-1H-pyrazole-4-carboxylic acid], the values for the half-inhibitory concentration (IC50) in assay [1] and in assay [2] were 10 to 100 nM and 100 to 1000 nM, respectively.
For `CC1(C)CCc2cnn(-c3cccc(-c4cccc(-n5ncc(C(=O)O)c5C(F)(F)F)n4)c3)c21` [Example 204, 1-(6-(3-(6,6-Dimethyl-5,6-dihydrocyclopenta[c]pyrazol-1(4H)-yl)phenyl)pyridin-2-yl)-5-(trifluoromethyl)-1H-pyrazole-4-carboxylic Acid] the same measures were 100 to 1000 nM and 1000 to 10000 nM.
For `Cn1cc(C2CC2c2c(C(=O)O)cnn2-c2cccc(-c3cccc(CCC4CCCCC4)c3)c2)nn1` (stereo not drawn) [Example 233, 1-(3′-(2-Cyclohexylethyl)-[1,1′-biphenyl]-3-yl)-5-(2-(1-methyl-1H-1,2,3-triazol-4-yl)cyclopropyl)-1H-pyrazole-4-carboxylic Acid] the same measures were 100 to 1000 nM and 100 to 1000 nM.
